# Read-outs that look alike come from different tables or passages of the source.
# Tests used:
# [1] = MIRACL trial: primary efficacy measure (recurrent ischemic events) over 16 weeks; format: in vivo, human; conditions: 2442 patients with baseline data, 16-week follow-up
# Experimental: (§1) The MIRACL study design was previously published. Briefly, the study recruited 3086 patients with unstable angina or non-Q-wave acute myocardial infarction between 24-96 hours after hospital admission at 122 centers in 19 countries. Patients were randomly assigned to double-blind treatment with atorvastatin 80 mg/day or placebo for 16 weeks. The primary efficacy measure was the time to first occurrence of death, nonfatal acute myocardial infarction, cardiac arrest with resuscitation, or worsening angina with new objective evidence of ischemia and requiring emergency re-hospitalization. […] Patients were analyzed on an intention-to-treat basis.
# (§2) Since the baseline and Week 16 distributions of the OxLDL markers were positively skewed, log-transformed values were used in the statistical models and analyses and antilog-transformed for descriptive statistics yielding geometric means and 95% confidence intervals (CI) for baseline, Week 16 and percent change from baseline to Week 16. […] For each marker, the logistic regression model included terms for log-transformed marker and randomized treatment assignment; odds ratios were expressed as the relative odds for each one unit increase in the log-transformed marker. Pearson correlations were calculated to summarize the relationship between OxPL/apoB and Lp(a) at baseline and at Week 16. […]
# ApoB-100 = test: Plasma apoB-100 level (Behring kit); format: in vivo, human
# Experimental: as §1
# (§3) Plasma Lp(a) levels were measured by a chemiluminescent ELISA with monoclonal antibody LPA4, as previously described. […] ApoB-100 levels were measured by a commercially available kit (Behring) and CRP levels as previously described.
# (§4) Since the baseline and Week 16 distributions of the OxLDL markers were positively skewed, log-transformed values were used in the statistical models and analyses and antilog-transformed for descriptive statistics yielding geometric means and 95% confidence intervals (CI) for baseline, Week 16 and percent change from baseline to Week 16. […] Pearson correlations were calculated to summarize the relationship between OxPL/apoB and Lp(a) at baseline and at Week 16. […]
# [2] = tested on: apoB-100 immune complexes; test: Apolipoprotein B-100 immune complexes (IC/apoB and Total apoB-IC, IgG and IgM) chemiluminescent ELISA in plasma; format: in vivo, human
# Experimental: (§5) The MIRACL study design was previously published. Briefly, the study recruited 3086 patients with unstable angina or non-Q-wave acute myocardial infarction between 24-96 hours after hospital admission at 122 centers in 19 countries. Patients were randomly assigned to double-blind treatment with atorvastatin 80 mg/day or placebo for 16 weeks. The primary efficacy measure was the time to first occurrence of death, nonfatal acute myocardial infarction, cardiac arrest with resuscitation, or worsening angina with new objective evidence of ischemia and requiring emergency re-hospitalization. 2739 patients completed the entire 16 week follow-up period, of whom 2442 had baseline blood samples and 2341 had baseline and Week 16 blood samples available for analysis. Blood was collected in EDTA and stored at −70° C. until analysis. Patients were analyzed on an intention-to-treat basis.
# (§6) Chemiluminescent ELISA was used to measure OxLDL markers (FIG. 1A-1C). All samples for a given assay were run in a single assay and internal controls consisting of high and low standard plasma samples were included to detect potential variations between microtitration plates. Each sample was assayed in triplicate and data are expressed as relative light units (RLU) in 100 milliseconds. The intra-assay coefficients of variation for all assays were 6-10%.
# (§7) The data for OxLDL-E06 and apoB-IC are presented in two ways: 1) as OxPL/apoB and IC/apoB, which specifically quantifies the content of OxPL and IC, respectively, on each captured apoB-100 particle, and 2) as Total apoB-OxPL and Total apoB-IC, which reflects the OxPL and IC content on all apoB-100 containing particles in plasma, by multiplying the plasma “OxPL/apoB” and “IC/apoB” value by the plasma apoB-100 levels measured independently as noted below.
# (§8) Plasma titers of IgG and IgM apoB-IC and malondialdehyde (MDA-LDL) (1:200 plasma dilution) autoantibodies and apoB-IC were measured as previously described.
# Since the baseline and Week 16 distributions of the OxLDL markers were positively skewed, log-transformed values were used in the statistical models and analyses and antilog-transformed for descriptive statistics yielding geometric means and 95% confidence intervals (CI) for baseline, Week 16 and percent change from baseline to Week 16. Inferential analyses included paired-sample t-tests for within treatment group differences in markers at baseline versus Week 16, and independent-sample t-tests for between treatment group differences in markers at Week 16 and between treatment group differences in absolute change in log-transformed markers from baseline to Week 16. Logistic regression models were constructed to summarize the relationships between baseline OxLDL values and the primary efficacy measure of the trial. For each marker, the logistic regression model included terms for log-transformed marker and randomized treatment assignment; odds ratios were expressed as the relative odds for each one unit increase in the log-transformed marker. Pearson correlations were calculated to summarize the relationship between OxPL/apoB and Lp(a) at baseline and at Week 16. Statistical significance was defined as P<0.05.
# LDL cholesterol [3] = test: Plasma LDL cholesterol in MIRACL patients; format: in vivo, human
# Experimental: as §5, with “MIRACL” left out, “-70°” for “−70°”
# LDL cholesterol [4] = conditions: PROVE-IT, two years' treatment, 80 mg atorvastatin versus 40 mg pravastatin; cited from earlier work
# MDA-LDL autoantibodies = test: Autoantibodies to MDA-LDL (IgG and IgM) chemiluminescent ELISA in plasma; format: in vivo, human
# Experimental: as §5
# Chemiluminescent ELISA was used to measure OxLDL markers (FIG. 1A-1C). […] Each sample was assayed in triplicate and data are expressed as relative light units (RLU) in 100 milliseconds. […]
# as §8, §2
# [5] = tested on: oxidized phospholipids (OxPL) on apoB-100 particles; test: OxLDL-E06 chemiluminescent ELISA (OxPL/apoB and Total apoB-OxPL) in plasma; format: in vivo, human
# Experimental: as §5, §6
# OxLDL-E06 is a measure of the content of oxidized phospholipids (OxPL) per apoB-100 particle using the murine monoclonal antibody E06, which specifically binds to the phosphorylcholine head group of oxidized but not native phospholipids. A 1:50 dilution of plasma in phosphate-buffered saline (PBS) is added to microtiter wells coated with the monoclonal antibody MB47 (5 μg/ml), which specifically binds apoB-100 particles. Under these conditions, a saturating amount of apoB-100 is added to each well and consequently an equal number of apoB-100 particles are captured in each well for all assays. The content of OxPL per apoB-100 is then determined with biotinylated E06. In a previous study we directly measured the amount of apoB-100 bound in each well by the degree of binding of a biotinylated anti-apoB-100 antibody, and compared the OxPL RLU values alone to the ratio of OxPL RLU/apoB-100 RLU and found a correlation of r^2=0.99 (n=1500 samples). Therefore, we arbitrarily assigned the apoB-100 RLU value in the denominator as 1 and report the OxPL/apoB values as OxPL RLU counts only. Note that by design, this assay normalizes the OxPL content per apoB-100 particle and is therefore independent of plasma apoB-100 (and thus LDL-cholesterol) levels.
# as §7
# Since the baseline and Week 16 distributions of the OxLDL markers were positively skewed, log-transformed values were used in the statistical models and analyses and antilog-transformed for descriptive statistics yielding geometric means and 95% confidence intervals (CI) for baseline, Week 16 and percent change from baseline to Week 16. […]
# Lp(a) = test: Plasma Lp(a) level, chemiluminescent ELISA with antibody LPA4; format: in vivo, human
# Experimental: as §1, §3, §4
# [6] = entire MIRACL population, 16 weeks; cited from earlier work
# [7] = Week 16, atorvastatin 80 mg/day, ACS patients, geometric mean
structure (smiles),measurement,setting,value
CC(C)c1c(C(=O)Nc2ccccc2)c(-c2ccccc2)c(-c2ccc(F)cc2)n1CC[C@@H](O)C[C@@H](O)CC(=O)O [atorvastatin],patients with a primary endpoint event,[1],10.7%
same,ApoB-100 mean level,ApoB-100; [7],87 mg/dL
same,apoB-100 percent change from baseline,"ApoB-100; baseline to Week 16, 80 mg/day",−33.0%
same,IC/apoB IgG mean level,[2]; [7],9048 RLU
same,IC/apoB IgM mean level,[2]; [7],3933 RLU
same,Total apoB-IC IgG mean level,[2]; [7],749 (RLU · mg/dl) × 10^3
same,Total apoB-IC IgM mean level,[2]; [7],325 (RLU · mg/dl) × 10^3
same,IgG IC/apoB relative increase from baseline,"[2]; baseline to Week 16, 80 mg/day",9.6%
same,IgM IC/apoB relative increase from baseline,"[2]; baseline to Week 16, 80 mg/day",15.4%
same,Total apoB-IC IgG percent change from baseline,"[2]; baseline to Week 16, 80 mg/day",−29.5%
same,Total apoB-IC IgM percent change from baseline,"[2]; baseline to Week 16, 80 mg/day",−25.7%
same,LDL cholesterol level after treatment,"LDL cholesterol [3]; Week 16 (from 124±34 at baseline), 80 mg/day",72 ± 35 mg/dL
same,reduction in LDL cholesterol,"LDL cholesterol [3]; baseline to Week 16, 80 mg/day",42%
same,median LDL cholesterol level,LDL cholesterol [4],62 mg/dL
same,Autoantibodies to MDA-LDL IgG mean level,MDA-LDL autoantibodies; [7],4922 RLU
same,Autoantibodies to MDA-LDL IgM mean level,MDA-LDL autoantibodies; [7],1088 RLU
same,IgG and IgM MDA-LDL autoantibody level increase,"MDA-LDL autoantibodies; baseline to Week 16, range stated for both groups (atorvastatin and placebo)",9.1-14.4%
same,OxPL/apoB mean level,[5]; [7],11048 RLU
same,Total apoB-OxPL mean level,[5]; [7],912 (RLU · mg/dl) × 10^3
same,OxPL/apoB relative increase from baseline,"[5]; baseline to Week 16, 80 mg/day",9.5%
same,Total apoB-OxPL percent change from baseline,"[5]; baseline to Week 16, 80 mg/day",−29.7%
same,"OxPL enrichment of apoB particles (OxPL/apoB), absolute difference compared to placebo","[5]; baseline to Week 16 change, atorvastatin vs placebo",13.4%
same,Lp(a) mean level,Lp(a); [7],13.0 mg/dL
same,Lp(a) relative increase from baseline,"Lp(a); baseline to Week 16, 80 mg/day",8.8%
same,patients with a primary endpoint event,[6],14.6%

# Reference: patent US8129123B2, “Methods for assessing atherogenesis by determining oxidized phospholipid to apolipoprotein B ratios” (The Regents of the University of California, priority 2004, dated 2012)
